Results taken from PMC8901748, “A novel prostaglandin E receptor 4 (EP4) small molecule antagonist induces articular cartilage regeneration” (Cell Discovery, 2022).

Assays:
[1] = test system: human articular cartilage explants; assay: Human articular cartilage explant culture (S.O. staining, DMMB assay, qRT-PCR, immunohistochemistry); assay type: cell-based
Description: Human articular cartilage explants of OA patients undergoing total knee replacement surgery were collected (3 mm × 3 mm), with the approval of the Human Ethics Committee of Shanghai Sixth People’s Hospital (2021-048). The full thickness cartilage tissue samples were harvested from tibia plateau avoiding subchondral bone. We control the quality of the explants according to the principle mentioned below. (1) The human articular cartilage explants were harvested from the relatively intact region of the tibia plateau. (2) The explants from different patients were cut from the same position of tibia plateau avoiding subchondral bone. (3) The explants were cut in the size of 3 mm × 3 mm for the DMMB assay and the S.O. staining. (4) To avoid inter-patient and intra-patient sample heterogeneous, explants used within the same drug experiment (vehicle and treatment) must be collected in locations in close proximity and from the same patient. Each explant in the groups that treated with the same drug was from the same patient. The cartilage explants for Safranin-O/Fast-green (S.O.) staining and immunofluorescence were fixed in 4% paraformaldehyde (PFA) (wt/vol) overnight at 4 °C, embedded in paraffin, sliced (7 μm) and mounted on positively charged slides. The cartilage explants (3 mm × 3 mm) for DMMB assay and S.O. staining were harvested and placed in 24-well plates and cultured in 1 ml of serum-free F12 culture media for 24 h. n ≥ 4 patients were assessed. The media was then replaced with F12 culture media containing serum, added 1 ng/ml IL-1β, Celecoxib, Grapiprant, HL-43, and explants were cultured for a further 7 days. The culture media was collected for the release of glycosaminoglycans. To quantify GAGs, media were mixed with DMMB in formate buffer and absorbance at 535 nm was determined using a Spectramax plate reader (Molecular Devices, Sunnyvale, CA). […] We calculated the proteoglycan staining area using Image J with a region of interest of a 1 × 1 mm square, drawn at the edge of the cartilage surface under 10× objective. […]

articular cartilage = assay: Aging-induced cartilage defect (CD) mouse model; assay type: in vivo, mice (strain C57/BL/6); details: 19-month-old mice, 30 mg/kg daily by gavage for 3 months
Procedure: WT male mice (strain C57/BL/6) were raised under identical conditions until 19 months. The vehicle, Celecoxib, and HL-43 were administered to mice at 30 mg/kg daily by gavage from 19 to 22 month, n = 9 for vehicle and HL-43-treated groups, n = 6 for Celecoxib treated group.
Knee joints of mice were fixed for 24 h in 4% paraformaldehyde (wt/vol), dehydrated into 100% ethanol, and decalcified for 1 week in 0.5 M EDTA pH 8.0. Paraffin-embedded tissue was sectioned (7 μm) and stained with Safranin O and Hematoxylin & Eosin (H&E) according to standard procedures. The OARSI histologic scoring of OA in the mouse was used to measure the cartilage and synovial damage of OA[71],[77]. Immunohistochemical staining for Col2a1, ColX, Sox9, p-CREB, and CREB were routinely performed and follow previous description. […] Histomorphometry and quantification were performed using ImageJ software. Quantification of Mmp13, ColX, Sox9 positive regions were quantified as the positive area/total cartilage area per field of view under ×40 objective magnification.

[2] = test system: Sox9 promoter-Luc in ATDC5 cells; assay: Sox9 promoter-Luc luciferase reporter assay; assay type: cell-based, mouse; details: 6 h
Procedure: (§1) Six firefly luciferase reporters were used in the Luciferase assay, including CRE-Luc (PathDetect CRE cis-Reporting System; Stratagene, La Jolla CA) driven by a basic promoter (TATA box) plus four repeats of CRE; Sox9 promoter-Luc contains human SOX9 proximal promoter region (−1034 bp to +67 bp)[45]; 4 × 48-p89-Luc, mouse Col2a1 minimal promoter. AP-1-Luc, Nf-κb-Luc, STAT-Luc were obtained from Stratagene. Chondrocytes were cultured in 24-well plates and 300 ng firefly luciferase reporter constructs were transiently transfected using transfection reagent TransExellent-DNA (Cenji Biotech Inc, China) following manufacturer’s instruction, and 15 ng of the Copia-Renilla luciferase reporter was co-transfected as a normalization control. Cells were treated with the indicated reagents for 48 h after transfection. The Dual-Luciferase measurements were performed in triplicate using the Luciferase assay kit (Promega) and a LUMIstar Omega luminometer (BMG Labtech, Mornington, Australia).

STAT-Luc in ATDC5 cells = assay: STAT-Luc luciferase reporter assay; assay type: cell-based, mouse; details: 2 ng/ml IL-1β, 30 μM HL-43, 6 h
Procedure: as §1

SMILES: C[C@H](NC(=O)c1c(-c2ccccc2)nnn1CCOc1ccc(F)cc1)c1ccc(C(=O)O)cc1 [HL-43]
- Percentage area of proteoglycan by S.O. staining ([1]; human OA cartilage explants, 1 week): increased with HL-43 treatment in a dose-dependent manner
- Immunohistochemistry of ACAN, SOX9, MMP13, COLX ([1]; human cartilage explants): inducted anabolic factors (ACAN and SOX9), and suppressed catabolic factor (MMP13), and hypertrophic marker (COLX)
- Expression of anabolic factors (COL2A1, ACAN, SOX9) and catabolic factor (MMP13), qRT-PCR ([1]; human explants, 1 ng/ml IL-1β, 24 h, Celecoxib 10 μM, Grapiprant and HL-43 30 μM): best efficacy
- Cartilage integrity and articular cartilage thickness (articular cartilage): notably preserved cartilage integrity and had thicker articular cartilage
- Sox9 promoter-Luc activity after IL-1β ([2]; 2 ng/ml IL-1β): partially rescued the Sox9 transcriptional expression in a dose-dependent manner
- Sox9 promoter-Luc activity ([2]; without IL-1β): increased by HL-43 stimulation in a dose-dependent manner
- STAT luciferase reporter activity (STAT-Luc in ATDC5 cells): significantly inhibited
